Tested on: HCV type 1b replicon in Huh-7 luc/neo (Huh-Luc) cells
Experiment: HCV replicon assay (Huh-Luc, luciferase readout)
Assay type: cell-based
Details: Hepatitis C virus, Huh-7, 72 h, three days incubation, luciferase activity, read-out: HCV-REP-HUH-LUC_EC50
Excerpt: The compounds of formula (I) were examined for inhibitory activity in the HCV replicon. This cellular assay is based on a bicistronic expression construct, as described by Lohmann et al. (1999) Science vol. 285 pp. 110-113 with modifications described by Krieger et al. (2001) Journal of Virology 75: 4614-4624, in a multi-target screening strategy.
In essence, the method was as follows:
The assay utilized the stably transfected cell line Huh-7 luc/neo (hereafter referred to as Huh-Luc). This cell line harbors an RNA encoding a bicistronic expression construct comprising the wild type NS3-NS5B regions of HCV type 1b translated from an Internal Ribosome Entry Site (IRES) from encephalomyocarditis virus (EMCV), preceded by a reporter portion (FfL-luciferase), and a selectable marker portion (neoR, neomycine phosphotransferase). The construct is flanked by 5′ and 3′ NTRs (non-translated regions) from HCV type 1b. Continued culture of the replicon cells in the presence of G418 (neoR) is dependent on the replication of the HCV RNA. The stably transfected replicon cells that express HCV RNA, which replicates autonomously and to high levels, encoding inter alia luciferase, were used for screening the antiviral compounds.
The replicon cells were plated in 384 well plates in the presence of the test and control compounds which were added in various concentrations. Following an incubation of three days, HCV replication was measured by assaying luciferase activity (using standard luciferase assay substrates and reagents and a Perkin Elmer ViewLux™ ultraHTS microplate imager). Replicon cells in the control cultures have high luciferase expression in the absence of any inhibitor. The inhibitory activity of the compound on luciferase activity was monitored on the Huh-Luc cells, enabling a dose-response curve for each test compound. EC50 values were then calculated, which represent the amount of compound required to decrease the level of detected luciferase activity by 50%, or more specifically, to reduce the ability of the genetically linked HCV replicon RNA to replicate.

| SMILES | EC50 [nM] |
| --- | --- |
| COC(=O)N[C@H](C(=O)N1CCC[C@H]1c1nc2cc(-c3ncc(-c4ccc5nc([C@@H]6CCCN6C(=O)[C@@H](NC(=O)OC)[C@@H](C)OC)[nH]c5c4)cn3)ccc2[nH]1)[C@@H](C)OC [Compound 3] | 0.13 |
| COC(=O)N[C@H](C(=O)N1CCC[C@H]1c1nc2cc(-c3ccc(-c4ccc5nc([C@@H]6CCCN6C(=O)[C@@H](NC(=O)OC)C(C)C)[nH]c5c4)nn3)ccc2[nH]1)C(C)C [Compound 1] | 0.13 |
| COC(=O)N[C@H](C(=O)N1CCC[C@H]1c1nc2cc(-c3ncc(-c4ccc5nc([C@@H]6CCCN6C(=O)[C@@H](NC(=O)OC)C(C)C)[nH]c5c4)cn3)ccc2[nH]1)C(C)C [Compound 4] | 0.03 |
| COC(=O)N[C@@H](C(=O)N1CCC[C@H]1c1nc2cc(-c3ccc(-c4ccc5nc([C@@H]6CCCN6C(=O)[C@H](NC(=O)OC)c6ccccc6)[nH]c5c4)nn3)ccc2[nH]1)c1ccccc1 [Compound 6] | 0.045 |
| COC(=O)N[C@@H](C(=O)N1CCC[C@H]1c1nc2cc(-c3ncc(-c4ccc5nc([C@@H]6CCCN6C(=O)[C@H](NC(=O)OC)c6ccccc6)[nH]c5c4)cn3)ccc2[nH]1)c1ccccc1 [Compound 5] | < 0.015 |
| COC(=O)N[C@H](C(=O)N1CCC[C@H]1c1nc2ccc(-c3ccc(-c4ccc5nc([C@@H]6CCCN6C(=O)[C@@H](NC(=O)OC)[C@@H](C)OC)[nH]c5c4)nc3)cc2[nH]1)[C@@H](C)OC [Compound 9] | 0.31 |
| COC(=O)N[C@H](C(=O)N1CCC[C@H]1c1nc2cc(-c3ncc(-c4ccc5nc([C@@H]6CCCN6C(=O)[C@@H](NC(=O)OC)C6CC6)[nH]c5c4)cn3)ccc2[nH]1)C1CC1 [Compound 7] | 0.059 |

From patent publication US20120172368A1, “Bis-Benzimidazole Derivatives” (priority 2009, published 2012)
